Measured values reported in ChEMBL document CHEMBL2074318, “Expression, transport properties, and chromosomal location of organic anion transporter subtype 3” (Am J Physiol Gastrointest Liver Physiol, 2000).

T1: Solute carrier organic anion transporter family member 1A5 (Rattus norvegicus, UniProt O88397)
T1 sequence (O88397 whole entry): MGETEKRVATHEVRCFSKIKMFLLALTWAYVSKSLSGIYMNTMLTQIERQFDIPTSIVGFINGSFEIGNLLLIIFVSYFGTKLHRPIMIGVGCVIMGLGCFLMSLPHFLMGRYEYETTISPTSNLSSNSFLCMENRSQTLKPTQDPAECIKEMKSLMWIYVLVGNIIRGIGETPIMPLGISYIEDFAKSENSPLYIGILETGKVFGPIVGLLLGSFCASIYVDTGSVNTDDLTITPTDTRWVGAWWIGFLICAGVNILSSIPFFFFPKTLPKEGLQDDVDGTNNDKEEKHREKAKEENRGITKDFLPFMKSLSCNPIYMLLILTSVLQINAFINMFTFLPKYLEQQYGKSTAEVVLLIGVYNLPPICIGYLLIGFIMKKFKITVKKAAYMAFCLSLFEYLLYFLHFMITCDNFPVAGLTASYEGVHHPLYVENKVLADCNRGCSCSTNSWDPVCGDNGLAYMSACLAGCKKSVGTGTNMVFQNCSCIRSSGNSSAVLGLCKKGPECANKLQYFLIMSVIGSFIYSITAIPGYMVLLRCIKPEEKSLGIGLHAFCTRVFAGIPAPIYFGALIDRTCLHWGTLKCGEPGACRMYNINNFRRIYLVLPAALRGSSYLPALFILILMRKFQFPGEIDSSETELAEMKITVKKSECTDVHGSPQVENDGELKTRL

T2: Ileal sodium/bile acid cotransporter (Rattus norvegicus, UniProt Q62633)
T2 sequence (Q62633 whole entry): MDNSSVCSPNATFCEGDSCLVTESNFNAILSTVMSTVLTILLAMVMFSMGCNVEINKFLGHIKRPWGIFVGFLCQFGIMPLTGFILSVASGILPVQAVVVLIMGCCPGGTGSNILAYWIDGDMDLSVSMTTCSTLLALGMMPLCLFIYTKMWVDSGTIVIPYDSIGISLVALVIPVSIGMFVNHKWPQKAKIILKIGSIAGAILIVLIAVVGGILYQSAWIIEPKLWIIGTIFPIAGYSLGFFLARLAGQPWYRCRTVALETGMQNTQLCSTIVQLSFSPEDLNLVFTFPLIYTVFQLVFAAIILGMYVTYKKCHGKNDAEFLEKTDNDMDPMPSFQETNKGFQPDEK


Key:
Type in all cases: functional, cell-based
[1] = biological target: T1, Solute carrier organic anion transporter family member 1A5; assay: TP_TRANSPORTER: inhibition of Taurocholate uptake (Taurocholate: 10 uM, DIDS: 1000 uM) in Oatp3-expressing MDCK cells; conditions: dog
[2] = biological target: T2, Ileal sodium/bile acid cotransporter; assay: TP_TRANSPORTER: uptake in ASBT-expressing COS cells; conditions: monkey
[3] = biological target: T1, Solute carrier organic anion transporter family member 1A5; assay: TP_TRANSPORTER: uptake in Oatp3-expressing COS cells; conditions: monkey
[4] = substrate: C[C@H](CCC(=O)NCC(=O)O)[C@H]1CC[C@H]2[C@@H]3CC[C@@H]4C[C@H](O)CC[C@]4(C)[C@H]3C[C@H](O)[C@]12C; assay: (§1) TP_TRANSPORTER: uptake in Oatp3-expressing MDCK cells
[5] = substrate: C[C@H](CCC(=O)NCC(=O)O)[C@H]1CC[C@H]2[C@@H]3[C@@H](O)C[C@@H]4C[C@H](O)CC[C@]4(C)[C@H]3CC[C@]12C; assay: as §1
[6] = substrate: C[C@H](CCC(=O)NCC(=O)O)[C@H]1CC[C@H]2[C@@H]3[C@H](O)C[C@@H]4C[C@H](O)CC[C@]4(C)[C@H]3CC[C@]12C; assay: as §1
[7] = substrate: C[C@H](CCC(=O)NCC(=O)O)[C@H]1CC[C@H]2[C@@H]3[C@H](O)C[C@@H]4C[C@H](O)CC[C@]4(C)[C@H]3C[C@H](O)[C@]12C; assay: as §1
[8] = substrate: C[C@H](CCC(=O)NCCS(=O)(=O)O)[C@H]1CC[C@H]2[C@@H]3CC[C@@H]4C[C@H](O)CC[C@]4(C)[C@H]3C[C@H](O)[C@]12C; assay: as §1
[9] = substrate: C[C@H](CCC(=O)NCCS(=O)(=O)O)[C@H]1CC[C@H]2[C@@H]3[C@@H](O)C[C@@H]4C[C@H](O)CC[C@]4(C)[C@H]3CC[C@]12C; assay: as §1
[10] = substrate: C[C@H](CCC(=O)NCCS(=O)(=O)O)[C@H]1CC[C@H]2[C@@H]3[C@H](O)C[C@@H]4C[C@H](O)CC[C@]4(C)[C@H]3CC[C@]12C; assay: as §1

Row | Molecule | Activity [2] | Activity [3] | other results
1 | O=S(=O)(O)c1cc(N=C=S)ccc1/C=C/c1ccc(NC=S)cc1S(=O)(=O)O |  |  | Activity [1]: inhibitor [(at a rough estimate) 15 % of control]
2 | C[C@H](CCC(=O)NCCS(=O)(=O)O)[C@H]1CC[C@H]2[C@@H]3[C@H](O)C[C@@H]4C[C@H](O)CC[C@]4(C)[C@H]3CC[C@]12C [TAUROCHENODEOXYCHOLATE] | substrate [+] | substrate [+] | 
3 | C[C@H](CCC(=O)NCCS(=O)(=O)O)[C@H]1CC[C@H]2[C@@H]3CC[C@@H]4C[C@H](O)CC[C@]4(C)[C@H]3C[C@H](O)[C@]12C [TAURODEOXYCHOLIC ACID] | substrate [+] | substrate [+] | 
4 | C[C@H](CCC(=O)NCC(=O)O)[C@H]1CC[C@H]2[C@@H]3[C@H](O)C[C@@H]4C[C@H](O)CC[C@]4(C)[C@H]3C[C@H](O)[C@]12C [GLYCOCHOLIC ACID] | substrate [+] | substrate [+] | 
5 | C[C@H](CCC(=O)NCC(=O)O)[C@H]1CC[C@H]2[C@@H]3CC[C@@H]4C[C@H](O)CC[C@]4(C)[C@H]3C[C@H](O)[C@]12C [GLYCODEOXYCHOLATE] | substrate [+] | substrate [+] | 
6 | C[C@H](CCC(=O)NCC(=O)O)[C@H]1CC[C@H]2[C@@H]3[C@@H](O)C[C@@H]4C[C@H](O)CC[C@]4(C)[C@H]3CC[C@]12C [GLYCOURSODEOXYCHOLIC ACID] | substrate [+] | substrate [+] | 
7 | C[C@H](CCC(=O)NCCS(=O)(=O)O)[C@H]1CC[C@H]2[C@@H]3[C@@H](O)C[C@@H]4C[C@H](O)CC[C@]4(C)[C@H]3CC[C@]12C [TAURURSODIOL] | substrate [+] | substrate [+] | 
8 | C[C@H](CCC(=O)NCC(=O)O)[C@H]1CC[C@H]2[C@@H]3[C@H](O)C[C@@H]4C[C@H](O)CC[C@]4(C)[C@H]3CC[C@]12C [GLYCOCHENODEOXYCHOLATE] | substrate [+] | substrate [+] | 
9 | Solute carrier organic anion transporter family member 1A5 (Rattus norvegicus) (protein) MGETEKRVATHEVRCFSKIKMFLLALTWAYVSKSLSGIYMNTMLTQIERQFDIPTSIVGFINGSFEIGNLLLIIFVSYFGTKLHRPIMIGVGCVIMGLGCFLMSLPHFLMGRYEYETTISPTSNLSSNSFLCMENRSQTLKPTQDPAECIKEMKSLMWIYVLVGNIIRGIGETPIMPLGISYIEDFAKSENSPLYIGILETGKVFGPIVGLLLGSFCASIYVDTGSVNTDDLTITPTDTRWVGAWWIGFLICAGVNILSSIPFFFFPKTLPKEGLQDDVDGTNNDKEEKHREKAKEENRGITKDFLPFMKSLSCNPIYMLLILTSVLQINAFINMFTFLPKYLEQQYGKSTAEVVLLIGVYNLPPICIGYLLIGFIMKKFKITVKKAAYMAFCLSLFEYLLYFLHFMITCDNFPVAGLTASYEGVHHPLYVENKVLADCNRGCSCSTNSWDPVCGDNGLAYMSACLAGCKKSVGTGTNMVFQNCSCIRSSGNSSAVLGLCKKGPECANKLQYFLIMSVIGSFIYSITAIPGYMVLLRCIKPEEKSLGIGLHAFCTRVFAGIPAPIYFGALIDRTCLHWGTLKCGEPGACRMYNINNFRRIYLVLPAALRGSSYLPALFILILMRKFQFPGEIDSSETELAEMKITVKKSECTDVHGSPQVENDGELKTRL |  |  | Km [4]: 4.3 µM; Km [5]: 5.3 µM; Km [6]: 5.6 µM; Km [7]: 15.4 µM; Km [8]: 5.8 µM; Km [9]: 6.6 µM; Km [10]: 7 µM
